From patent publication US20260070929A1, “METHODS AND COMPOSITIONS FOR MODULATING KRAS(G12D)” (Ranok Therapeutics (Hangzhou) Co. LTD., priority 2022, published 2026)

Legend:
[1] = biological target: T1, KRAS(G12D)/SOS1 (Homo sapiens, UniProt P01116, G12D); assay: KRAS(G12D)/SOS1 homogeneous time-resolved fluorescence (HTRF) assay; assay type: binding; conditions: absence of GTP; 4° C., 3 hr
T1 construct: purchased Cisbio 63ADK000CB17PEH
Method: Binding of test compounds to KRAS(G12D) target protein, which in turn blocks KRAS(G12D) interaction with the SOS1 protein, was measured in the absences of GTP by homogeneous time-resolved fluorescence using the KRAS-G12D/SOS1 Binding Assay Kit (Cisbio, 63ADK000CB17PEH), following the manufacturer's instructions, except as noted. 3-fold serial dilutions of each test compound were prepared ranging from 20 µM to 1.02 nM. The test compound was mixed and incubated with reaction components, incubated in a sealed plate at 4° C. for 3 hr and fluorescence was measured using a PerkinElmer Envision plate reader. The KRAS(G12D)-SOS1 IC50 values (the concentration of 50% of the maximal inhibition) were calculated using GraphPad Prism 7 software.

[2] = system: AGS gastric carcinoma cells [heterozygous G12D]; assay: Cancer cell line proliferation (CellTiter-Glo), AGS; assay type: cell-based; conditions: Homo sapiens, 72 hr treatment, read-out: AGS CTG (EC50)
Method: (§1) The following cancer cell lines were employed: AGS gastric carcinoma [heterozygous G12D](ATCC, CRL-1739); A-427 lung carcinoma [heterozygous G12D](ATCC, HTB-53); ASPC1 pancreatic adenocarcinoma [homozygous G12D](ATCC, CRL-1682) and SW1990 pancreatic adenocarcinoma [homozygous G12D](ATCC CRL-2172). Cell lines were cultured essentially according to ATCC recommendations.
(§2) AGS, A-427, ASPC1, SW1990, and GP2D cells were plated in 96-well tissue culture plates at 4,000 cells/well and incubated at 37° C./5% CO2 for 72 hr in 100 μl of media. 3-fold serial dilutions of each test compound were prepared ranging from 20 μM to 1.02 nM. Each cell line was then treated with test compounds at various concentrations with a final concentration of 0.5% DMSO/well, and then incubated at 37° C./5% CO2 for 72 hr. 100 µl of CellTiter-Glo® Reagent (Promega Corporation, Madison, WI) was added to each well and processed according manufacturer's protocol. Results were analyzed and EC50 values were calculated in GraphPad 7 software.

[3] = system: A-427 lung carcinoma cells [heterozygous G12D]; assay: Cancer cell line proliferation (CellTiter-Glo), A-427; assay type: cell-based; conditions: Homo sapiens, A-427 cells, 72 hr treatment, read-out: A427 CTG (EC50)
Method: as §1, §2

T1 sequence (P01116 1-188 isoform P01116-2 G12D): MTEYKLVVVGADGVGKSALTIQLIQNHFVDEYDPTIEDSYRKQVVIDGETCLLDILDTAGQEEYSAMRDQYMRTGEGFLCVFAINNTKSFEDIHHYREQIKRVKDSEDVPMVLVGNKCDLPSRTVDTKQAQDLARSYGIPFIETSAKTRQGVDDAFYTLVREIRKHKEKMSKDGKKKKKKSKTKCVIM

| Compound | IC50 [1] | EC50 [2] | EC50 [3] |
| --- | --- | --- | --- |
| C#Cc1cccc2cccc(-c3ncc4c(N5CC6CCC(C5)N6)nc(OCC5(CN6CCN(C(=O)C7CCN(Cc8ccc9c(c8)CN(C(=O)c8cc(C(C)C)c(O)cc8O)C9)CC7)CC6)CC5)nc4c3F)c12 [Compound 46] | < 100 nM |  |  |
| CCNC(=O)c1nnc(-c2cc(C(C)C)c(O)cc2O)n1-c1ccc(CN2CCC(C(=O)N(C)[C@H]3CN4CCC[C@@]4(COc4nc(N5CC6CCC(C5)N6)c5cnc(-c6cc(O)cc7ccccc67)c(F)c5n4)C3)CC2)cc1 [Compound 47] | < 100 nM | 100 to 1000 nM |  |
| CCNC(=O)c1nnc(-c2cc(C(C)C)c(O)cc2O)n1-c1ccc(CN2CCC(C(=O)N(C)[C@H]3CN4CCC[C@]4(COc4nc(N5CC6CCC(C5)N6)c5cnc(-c6cc(O)cc7ccccc67)c(F)c5n4)C3)CC2)cc1 [Compound 48] |  | 100 to 1000 nM |  |
| Cc1cccc2cccc(-c3ncc4c(N5CC6CCC(C5)N6)nc(OC[C@@H]5CC[C@H](CN6CCN(Cc7ccc8c(c7)CN(C(=O)c7cc(C(C)C)c(O)cc7O)C8)CC6)N5C)nc4c3F)c12 [Compound 71] | 100 to 1000 nM | 100 to 1000 nM | 100 to 1000 nM |
| CCNC(=O)c1nnc(-c2cc(C(C)C)c(O)cc2O)n1-c1ccc(CN2CCN(C[C@H]3CC[C@@H](COc4nc(N5CC6CCC(C5)N6)c5cnc(-c6cccc7cccc(C)c67)c(F)c5n4)N3C)CC2)cc1 [Compound 72] | 100 to 1000 nM | < 100 nM | < 100 nM |
| CCc1cc(-c2nnc(C(=O)NCC(F)(F)F)n2-c2ccc(CN3CCN(C[C@H]4CC[C@@H](COc5nc(N6CC7CCC(C6)N7)c6cnc(-c7cc(C)cc8ccccc78)c(F)c6n5)N4C)CC3)cc2)c(O)cc1O [Compound 73] | < 100 nM | 100 to 1000 nM | 100 to 1000 nM |
| CC(C)c1cc(C(=O)N2Cc3ccc(CN4CCN([C@H]5C[C@@H](COc6nc(N7CC8CNC(C8)C7)c7cnc(-c8cc(O)cc9ccccc89)c(F)c7n6)N(C)C5)CC4)cc3C2)c(O)cc1O (stereo partly shown) [Compound 74] | > 1000 nM | 100 to 1000 nM | 100 to 1000 nM |
| C#Cc1cccc2cccc(-c3ncc4c(N5CC6CCC(C5)N6)nc(OCCN5CCN(CCN(CC)C(=O)c6cc(C(C)C)c(O)cc6O)CC5)nc4c3F)c12 [Compound 75] | 100 to 1000 nM | > 1000 nM | > 1000 nM |
| CC(C)c1cc(C(=O)N2Cc3ccc(CN4CCN(C[C@H]5CC[C@@H](COc6nc(N7CC8CCC(C7)N8)c7cnc(-c8cccc9cccc(F)c89)c(F)c7n6)N5C)CC4)cc3C2)c(O)cc1O [Compound 76] | 100 to 1000 nM | 100 to 1000 nM | 100 to 1000 nM |
| CCNC(=O)c1nnc(-c2cc(C(C)C)c(O)cc2O)n1-c1ccc(CN2CCN([C@H]3C[C@@H](COc4nc(N5CC6CCC(C5)N6)c5cnc(-c6cccc7cccc(F)c67)c(F)c5n4)N(C)C3)CC2)cc1 [Compound 77] | 100 to 1000 nM | < 100 nM | 100 to 1000 nM |
| Cc1c(F)cccc1-c1ncc2c(N3CC4CCC(C3)N4)nc(OC[C@@H]3C[C@H](N4CCN(Cc5ccc(-n6c(C(=O)NC(C)C(F)(F)F)nnc6-c6cc(C(C)C)c(O)cc6O)cc5)CC4)CN3C)nc2c1F (stereo partly shown) [Compound 78] | > 1000 nM | 100 to 1000 nM | 100 to 1000 nM |
| Cc1c(F)cccc1-c1ncc2c(N3CC4CCC(C3)N4)nc(OC[C@@H]3C[C@H](N4CCN(C(=O)C5CCN(Cc6ccc7c(c6)CN(C(=O)c6cc(C(C)C)c(O)cc6O)C7)CC5)CC4)CN3C)nc2c1F [Compound 84] |  | 100 to 1000 nM | 100 to 1000 nM |
| CC(C)c1cc(C(=O)N2Cc3ccc(CN4CCN(C[C@H]5C[C@@H](COc6nc(N7CC8CCC(C7)N8)c7cnc(-c8cc(O)cc9ccccc89)c(F)c7n6)N(C)C5)CC4)cc3C2)c(O)cc1O [Compound 90] |  | 100 to 1000 nM | 100 to 1000 nM |
| CC(C)c1cc(-c2nnc(C(=O)NC(C)C(F)(F)F)n2-c2ccc(CN3CCN([C@H]4C[C@@H](COc5nc(N6CC7CCC(C6)N7)c6cnc(-c7ccccc7C(F)(F)F)c(F)c6n5)N(C)C4)CC3)cc2)c(O)cc1O (stereo partly shown) [Compound 110] |  | 100 to 1000 nM | 100 to 1000 nM |
| CCc1cc(-c2nnc(C(=O)NCC(F)(F)F)n2-c2ccc(CN3CCN([C@H]4C[C@@H](COc5nc(N6CC7CCC(C6)N7)c6cnc(-c7ccccc7C(F)(F)F)c(F)c6n5)N(C)C4)CC3)cc2)c(O)cc1O [Compound 111] |  | 100 to 1000 nM | 100 to 1000 nM |
| CC(C)c1cc(C(=O)N2Cc3ccc(CN4CCC(C(=O)N5CCN(C[C@H]6C[C@@H](COc7nc(N8CC9CCC(C8)N9)c8cnc(-c9cc(O)cc%10ccccc9%10)c(F)c8n7)N(C)C6)CC5)CC4)cc3C2)c(O)cc1O [Compound 112] |  | > 1000 nM | > 1000 nM |

| Compound | IC50 [1] | EC50 [2] | EC50 [3] |
| --- | --- | --- | --- |
| C#Cc1cccc2cc(O)cc(-c3ncc4c(N5CC6CCC(C5)N6)nc(OC[C@@H]5C[C@H](CN6CCN(Cc7ccc8c(c7)CN(C(=O)c7cc(C(C)C)c(O)cc7O)C8)CC6)CN5C)nc4c3F)c12 [Compound 113] |  | 100 to 1000 nM | 100 to 1000 nM |
| C#Cc1cccc2cc(O)cc(-c3ncc4c(N5CC6CCC(C5)N6)nc(OC[C@@H]5C[C@H](CN6CCN(Cc7ccc(-n8c(C(=O)NCC)nnc8-c8cc(C(C)C)c(O)cc8O)cc7)CC6)CN5C)nc4c3F)c12 [Compound 114] |  | 100 to 1000 nM | 100 to 1000 nM |
| C#Cc1cccc2cc(O)cc(-c3ncc4c(N5CC6CCC(C5)N6)nc(OC[C@@H]5C[C@H](CN6CCN(Cc7ccc(-n8c(C(=O)NC(C)C(F)(F)F)nnc8-c8cc(C(C)C)c(O)cc8O)cc7)CC6)CN5C)nc4c3F)c12 (stereo partly shown) [Compound 115] |  | 100 to 1000 nM | 100 to 1000 nM |
| C#Cc1cccc2cc(O)cc(-c3ncc4c(N5CC6CCC(C5)N6)nc(OC[C@@H]5C[C@H](CN6CCN(Cc7ccc(-n8c(C(=O)NCC(F)(F)F)nnc8-c8cc(CC)c(O)cc8O)cc7)CC6)CN5C)nc4c3F)c12 [Compound 116] |  | 100 to 1000 nM | > 1000 nM |
| C#Cc1c(F)ccc2cc(O)cc(-c3ncc4c(N5CC6CCC(C5)N6)nc(OCC5(CN6CCC(N7CCN(Cc8ccc9c(c8)CN(C(=O)c8cc(C(C)C)c(OC)cc8OC)C9)CC7)CC6)CC5)nc4c3F)c12 [Compound 196] |  | < 100 nM |  |
| C#Cc1c(F)ccc2cc(O)cc(-c3ncc4c(N5CC6CCC(C5)N6)nc(OC[C@H]5CCCN5Cc5ccc(-n6c(C(=O)NC(C)C(F)(F)F)nnc6-c6cc(C(C)C)c(O)cc6O)cc5)nc4c3F)c12 (stereo partly shown) [Compound 206] |  | 100 to 1000 nM |  |
| C#Cc1c(F)ccc2cc(O)cc(-c3ncc4c(N5CC6CNC(C6)C5)nc(OCC5(CN6CCC(N7CCN(Cc8ccc9c(c8)CN(C(=O)c8cc(C(C)C)c(O)cc8O)C9)CC7)CC6)CC5)nc4c3F)c12 (stereo not shown) [Compound 207] |  | 100 to 1000 nM |  |
| C#Cc1c(F)ccc2cc(O)cc(-c3ncc4c(N5CC6CCC(C5)N6CC#N)nc(OCC5(CN6CCC(N7CCN(Cc8ccc9c(c8)CN(C(=O)c8cc(C(C)C)c(O)cc8O)C9)CC7)CC6)CC5)nc4c3F)c12 [Compound 208] |  | < 100 nM |  |
| C#Cc1c(F)ccc2cc(O)cc(-c3ncc4c(N5CC6CCC(C5)N6)nc(OCC5(CN6CCC(N7CCN(Cc8cc9c(cc8F)CN(C(=O)c8cc(C(C)C)c(O)cc8O)C9)CC7)CC6)CC5)nc4c3F)c12 [Compound 209] |  | < 100 nM |  |
| C#Cc1c(F)ccc2cc(O)cc(-c3nc(OC)c4c(N5CC6CCC(C5)N6)nc(OC5CN(CC6(F)CN(Cc7ccc8c(c7)CN(C(=O)c7cc(C(C)C)c(O)cc7O)C8)C6)C5)nc4c3F)c12 [Compound 210] |  | 100 to 1000 nM |  |
| C#Cc1c(F)ccc2cc(O)cc(-c3ncc4c(N5CC6CCC(C5)N6)nc(OCC5(CN6CCN(CC#Cc7cn(Cc8ncc(C)c(OC)c8C)c8nc(N)nc(Cl)c78)CC6)CC5)nc4c3F)c12 [Compound 211] |  | < 100 nM |  |
| C#Cc1c(F)ccc2cc(O)cc(-c3ncc4c(N5CC6CCC(C5)N6)nc(OCC5(CN6CC(C7CN(Cc8ccc9c(c8)CN(C(=O)c8cc(C(C)C)c(O)cc8O)C9)C7)C6)CC5)nc4c3F)c12 [Compound 213] |  | < 100 nM |  |
| C#Cc1cccc2cc(O)cc(-c3ncc4c(N5CC6CCC(C5)N6)nc(OCC5(CN6CCC(N7CCN(Cc8ccc9c(c8)CN(C(=O)c8cc(C(C)C)c(O)cc8O)C9)CC7)CC6)CC5)nc4c3F)c12 [Compound 214] |  | < 100 nM |  |
| C#Cc1c(F)ccc2cc(O)cc(-c3ncc4c(N5CC6CCC(C5)N6)nc(OCC5(CN6CC(C7CCN(Cc8ccc9c(c8)CN(C(=O)c8cc(C(C)C)c(O)cc8O)C9)CC7)C6)CC5)nc4c3F)c12 [Compound 215] |  | < 100 nM |  |
| C#Cc1c(F)ccc2cc(O)cc(-c3ncc4c(N5CC6CCC(C5)N6)nc(OCC5(CN6CCC(N7CCC(Oc8ccc9c(n8)CN(C(=O)c8cc(C(C)C)c(O)cc8O)C9)CC7)CC6)CC5)nc4c3F)c12 [Compound 216] |  | < 100 nM |  |
| C#Cc1c(F)ccc2cc(O)cc(-c3ncc4c(N5CC6CCC(C5)N6)nc(OCC5(CN6CC(CN(C)CCOc7ccc8c(c7)CN(C(=O)c7cc(C(C)C)c(O)cc7O)C8)C6)CC5)nc4c3F)c12 [Compound 218] |  | 100 to 1000 nM |  |
